Source: PubChem BioAssay (NCI)
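Tested at 5 concentrations; 48 h exposure; 96-well plates; endpoints linearly interpolated, else capped at highest concentration. TGI is the concentration that stops growth completely.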

Assays:
Experiment in all cases: inhibition of tumour cell growth, NCI panel, 48 h
LOX IMVI melanoma = system: LOX IMVI melanoma
MDA-N = system: MDA-N
T-47D breast = system: T-47D breast
M14 melanoma = system: M14 melanoma
MALME-3M melanoma = system: MALME-3M melanoma
SNB-75 CNS = system: SNB-75 CNS
OVCAR-8 ovarian = system: OVCAR-8 ovarian
CCRF-CEM leukemia = system: CCRF-CEM leukemia
HT29 colon = system: HT29 colon
HS 578T breast = system: HS 578T breast
HOP-62 NSCLC = system: HOP-62 NSCLC
ACHN renal = system: ACHN renal
A498 renal = system: A498 renal
HOP-92 NSCLC = system: HOP-92 NSCLC
NCI-H522 lung = system: NCI-H522 lung
OVCAR-5 ovarian = system: OVCAR-5 ovarian
SK-MEL-28 melanoma = system: SK-MEL-28 melanoma
SK-OV-3 ovarian = system: SK-OV-3 ovarian
A549 NSCLC = system: A549 NSCLC
CAKI-1 renal = system: CAKI-1 renal
NCI/ADR-RES ovarian = system: NCI/ADR-RES ovarian
SNB-19 CNS = system: SNB-19 CNS
OVCAR-4 ovarian = system: OVCAR-4 ovarian
HL-60(TB) leukemia = system: HL-60(TB) leukemia
K-562 leukemia = system: K-562 leukemia
NCI-H226 lung = system: NCI-H226 lung
EKVX NSCLC = system: EKVX NSCLC
MOLT-4 leukemia = system: MOLT-4 leukemia
SF-268 CNS = system: SF-268 CNS
HCT-15 colon = system: HCT-15 colon
RXF 393 renal = system: RXF 393 renal
SW-620 colon = system: SW-620 colon
HCT-116 colon = system: HCT-116 colon
SF-539 CNS = system: SF-539 CNS
NCI-H23 lung = system: NCI-H23 lung
PC-3 prostate = system: PC-3 prostate
SK-MEL-5 melanoma = system: SK-MEL-5 melanoma
SF-295 CNS = system: SF-295 CNS
MCF7 breast = system: MCF7 breast
HCC-2998 colon = system: HCC-2998 colon
SN12C renal = system: SN12C renal
UACC-62 melanoma = system: UACC-62 melanoma
SK-MEL-2 melanoma = system: SK-MEL-2 melanoma
DU-145 prostate = system: DU-145 prostate
786-0 renal = system: 786-0 renal
MDA-MB-231 breast = system: MDA-MB-231 breast
COLO 205 colon = system: COLO 205 colon
UACC-257 melanoma = system: UACC-257 melanoma
KM12 colon = system: KM12 colon
SR leukemia = system: SR leukemia
NCI-H460 lung = system: NCI-H460 lung
OVCAR-3 ovarian = system: OVCAR-3 ovarian
U251 CNS = system: U251 CNS
MDA-MB-435 = system: MDA-MB-435
UO-31 renal = system: UO-31 renal
BT-549 breast = system: BT-549 breast
TK-10 renal = system: TK-10 renal
LXFL 529 NSCLC = system: LXFL 529 NSCLC
RPMI-8226 leukemia = system: RPMI-8226 leukemia
DLD-1 colon = system: DLD-1 colon
XF 498 CNS = system: XF 498 CNS
M19-MEL melanoma = system: M19-MEL melanoma
SNB-78 CNS = system: SNB-78 CNS
IGROV1 ovarian = system: IGROV1 ovarian
KM20L2 colon = system: KM20L2 colon

Compound: CSC(=NC1=NC(C(F)(F)F)(C(F)(F)F)N=C(c2ccccc2)O1)SC
- TGI (LOX IMVI melanoma): 42.8 µM
- TGI (MDA-N): 41.7 µM
- TGI (T-47D breast): 24.2 µM
- TGI (M14 melanoma): 54.6 µM
- TGI (MALME-3M melanoma): 37.7 µM
- TGI (SNB-75 CNS): 18.9 µM
- TGI (OVCAR-8 ovarian): > 100 µM
- TGI (CCRF-CEM leukemia): > 100 µM
- TGI (HT29 colon): 61 µM
- TGI (HS 578T breast): 72.5 µM
- TGI (HOP-62 NSCLC): 59 µM
- TGI (ACHN renal): 14.9 µM
- TGI (A498 renal): 51.6 µM
- TGI (HOP-92 NSCLC): 49.2 µM
- TGI (NCI-H522 lung): 25 µM
- TGI (OVCAR-5 ovarian): 82.3 µM
- TGI (SK-MEL-28 melanoma): > 100 µM
- TGI (SK-OV-3 ovarian): > 100 µM
- TGI (A549 NSCLC): > 100 µM
- TGI (CAKI-1 renal): 44.8 µM
- TGI (NCI/ADR-RES ovarian): 90.9 µM
- TGI (SNB-19 CNS): > 100 µM
- TGI (OVCAR-4 ovarian): 59.1 µM
- TGI (HL-60(TB) leukemia): 64 µM
- TGI (K-562 leukemia): > 100 µM
- TGI (NCI-H226 lung): 83.9 µM
- TGI (EKVX NSCLC): 42.3 µM
- TGI (MOLT-4 leukemia): 85.3 µM
- TGI (SF-268 CNS): > 100 µM
- TGI (HCT-15 colon): 33.5 µM
- TGI (RXF 393 renal): 24.5 µM
- TGI (SW-620 colon): > 100 µM
- TGI (HCT-116 colon): 16.3 µM
- TGI (SF-539 CNS): > 100 µM
- TGI (NCI-H23 lung): 65.5 µM
- TGI (PC-3 prostate): 38.9 µM
- TGI (SK-MEL-5 melanoma): 33.1 µM
- TGI (SF-295 CNS): > 100 µM
- TGI (MCF7 breast): 60.5 µM
- TGI (HCC-2998 colon): 39.6 µM
- TGI (SN12C renal): 42.9 µM
- TGI (UACC-62 melanoma): 64.2 µM
- TGI (SK-MEL-2 melanoma): 55.9 µM
- TGI (DU-145 prostate): 45 µM
- TGI (786-0 renal): 43.5 µM
- TGI (MDA-MB-231 breast): 88.1 µM
- TGI (COLO 205 colon): 46.5 µM
- TGI (UACC-257 melanoma): 60.5 µM
- TGI (KM12 colon): 20.7 µM
- TGI (SR leukemia): 76.1 µM
- TGI (NCI-H460 lung): > 100 µM
- TGI (OVCAR-3 ovarian): 63.9 µM
- TGI (U251 CNS): 75.2 µM
- TGI (MDA-MB-435): 55 µM
- TGI (UO-31 renal): 89.2 µM
- TGI (BT-549 breast): 82.4 µM
- TGI (TK-10 renal): > 100 µM

Compound: CCOC(=O)C(C(=O)Cc1ccccc1)c1ccccc1 (centres undefined)
- TGI (LXFL 529 NSCLC): > 100 µM
- TGI (LOX IMVI melanoma): > 100 µM
- TGI (M14 melanoma): > 100 µM
- TGI (MALME-3M melanoma): > 100 µM
- TGI (SNB-75 CNS): > 100 µM
- TGI (OVCAR-8 ovarian): > 100 µM
- TGI (CCRF-CEM leukemia): > 100 µM
- TGI (HT29 colon): > 100 µM
- TGI (HOP-62 NSCLC): > 100 µM
- TGI (RPMI-8226 leukemia): > 100 µM
- TGI (ACHN renal): > 100 µM
- TGI (HOP-92 NSCLC): > 100 µM
- TGI (NCI-H522 lung): > 100 µM
- TGI (OVCAR-5 ovarian): > 100 µM
- TGI (SK-MEL-28 melanoma): > 100 µM
- TGI (SK-OV-3 ovarian): > 100 µM
- TGI (A549 NSCLC): > 100 µM
- TGI (CAKI-1 renal): > 100 µM
- TGI (SNB-19 CNS): > 100 µM
- TGI (DLD-1 colon): > 100 µM
- TGI (OVCAR-4 ovarian): > 100 µM
- TGI (HL-60(TB) leukemia): > 100 µM
- TGI (K-562 leukemia): > 100 µM
- TGI (NCI-H226 lung): > 100 µM
- TGI (EKVX NSCLC): > 100 µM
- TGI (MOLT-4 leukemia): > 100 µM
- TGI (SF-268 CNS): > 100 µM
- TGI (HCT-15 colon): > 100 µM
- TGI (SW-620 colon): > 100 µM
- TGI (HCT-116 colon): > 100 µM
- TGI (SF-539 CNS): > 100 µM
- TGI (NCI-H23 lung): > 100 µM
- TGI (SK-MEL-5 melanoma): > 100 µM
- TGI (SF-295 CNS): > 100 µM
- TGI (XF 498 CNS): > 100 µM
- TGI (SN12C renal): > 100 µM
- TGI (UACC-62 melanoma): > 100 µM
- TGI (SK-MEL-2 melanoma): > 100 µM
- TGI (M19-MEL melanoma): > 100 µM
- TGI (786-0 renal): > 100 µM
- TGI (COLO 205 colon): > 100 µM
- TGI (UACC-257 melanoma): > 100 µM
- TGI (KM12 colon): > 100 µM
- TGI (SNB-78 CNS): > 100 µM
- TGI (IGROV1 ovarian): > 100 µM
- TGI (SR leukemia): > 100 µM
- TGI (NCI-H460 lung): > 100 µM
- TGI (KM20L2 colon): > 100 µM
- TGI (OVCAR-3 ovarian): > 100 µM
- TGI (U251 CNS): > 100 µM
- TGI (UO-31 renal): > 100 µM
- TGI (TK-10 renal): > 100 µM
